Data published in patent US10064901B2, “Compositions and methods” (priority 2013, dated 2018).
Values after ≈ are worked out from the molar mass of the structure shown. Where two headings read alike, the source gives them in different places.

Assays:
M. morganii isolates = assay: microbe, parasite or virus in culture; assay type: cell-based; details: Morganella morganii
P. pennerii isolates = assay: organism not typed; assay type: cell-based, Proteus pennerii
[1] = assay type: in vivo, human
ethanol treated spores = assay type: cell-based; details: lysozyme addition to the plates (2 ug/ml); Sweet B or M2GSC media (FIG. 14)
[2] = 10 patients with recurrent C. difficile treated with ethanol treated spore preparations

Row | Compound | % of Patients OTU Engrafts [1, 2] [%] | also measured
1 | C[C@@H](O)[C@H]1C(=O)N2C(C(=O)O)=C(SCCN=CN)C[C@H]12 [imipenem] |  | MIC (M. morganii isolates): 2 to 4 µg/mL (≈ 6.68 to 13.4 µM); MIC (P. pennerii isolates): 4 to 8 µg/mL (≈ 13.4 to 26.7 µM)
2 | Bacteroides_fragilis | 30 | 
3 | Clostridium_bartlettii | 70 | 
4 | Clostridium_butyricum |  | % of Patients OTU Engrafts ([1]; human, in vivo): 20%
5 | Clostridium_clostridioforme | 60 | 
6 | Clostridium_disporicum | 30 | 
7 | Clostridium_mayombei | 50 | 
8 | Clostridium_symbiosum | 50 | 
9 | lysozyme |  | effect on germination (ethanol treated spores): small effect
